Measured values taken from patent publication US6906205B2, “Spiro and dispiro 1,2,4-trioxolane antimalarials” (Medicines for Malaria Venture MMV, priority 2002, dated 2005).
Converted amounts (≈) assume the structure as drawn.

Columns and labels:
[1] = tested on: P. falciparum K1 strain (Thailand resistant to chloroquine); test: semiautomated microdilution assay, [3H]-hypoxanthine incorporation, K1 strain; format: cell-based, Plasmodium falciparum; settings: for IC50 (ng/ml) K1: K1 strain, 72 h incubation; for IC50: Plasmodium falciparum, K1, 72 h, read-out: IC50 (ng/ml) K1
Procedure, shortened: (§1)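 IC50 values come from logit regression of semiautomated microdilution data obtained on intraerythrocytic parasites drawn from asynchronous cultures.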

[2] = tested on: ANKA strain of P. berghei; test: single dose STI in vivo screen in infected mice; parameters: species or system Plasmodium berghei; settings: for Activity (%) po / Activity (%) sc / Activity (%) SSVpo / Activity (%) 3 mg/kg SSV po / Activity (%) 10 mg/kg SSV po: percent reduction in parasitemia day 3 post-infection; for Activity (%) po / Survival (days) po: single 10 mg/kg po in 3% ethanol and 7% Tween 80; for Activity (%) po / Activity (%) sc / Activity (%) SSVpo: mice; for Activity (%) sc / Survival (days) sc: single 10 mg/kg sc in 3% ethanol and 7% Tween 80; for Activity (%) SSVpo: single po dose in standard suspending vehicle (SSV); for Survival (days) po / Survival (days) sc / Survival (days) SSVpo: untreated control 5.6 ± 0.3; for Survival (days) SSVpo: single po dose in SSV; for Activity (%) 10 mg/kg SSV po / Survival (days) 10 mg/kg SSV po: single 10 mg/kg po in SSV
Procedure, shortened: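 Groups of 3-5 Moro SPF or NMRI mice infected with the ANKA strain of P. berghei received a single dose of trioxolane on day one post-infection. The compound was given in 3% ethanol and 7% Tween 80 or in SSV (0.5% w/v CMC, 0.5% v/v benzyl alcohol, 0.4% v/v Tween 80, 0.9% w/v sodium chloride in water). Antimalarial activity was scored as percent reduction in parasitemia on day three and as survival time versus untreated controls. Survival to day 30 counted as cure.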

[3] = tested on: P. falciparum NF54 strain (sensitive to standard antimalarials); test: semiautomated microdilution assay, [3H]-hypoxanthine incorporation, NF54 strain; format: cell-based, Plasmodium falciparum; settings: for IC50 (ng/ml) NF54: NF54 strain, 72 h incubation; for IC50: Plasmodium falciparum, NF54, 72 h, read-out: IC50 (ng/ml) NF54
Procedure, shortened: as §1

SMILES	IC50 (ng/ml) K1 [1]	Activity (%) po [2]	Activity (%) sc [2]	Activity (%) SSVpo [2]	Survival (days) po [2]	Survival (days) sc [2]	Survival (days) SSVpo [2]	IC50 (ng/ml) NF54 [3]	IC50 [1]	IC50 [3]	Activity (%) 3 mg/kg SSV po ([2]; single 3 mg/kg po in SSV)	Activity (%) 10 mg/kg SSV po [2]	Survival (days) 3 mg/kg SSV po ([2]; single 3 mg/kg po in SSV)	Survival (days) 10 mg/kg SSV po [2]
[N-]=[N+]=NCC[C@H]1CC[C@]2(CC1)OOC1(O2)C2CC3CC(C2)CC1C3 (stereo partly shown) [OZ228]	2.0 ng/mL (≈ 6 nM)	99.94%	99.94%	28%	10.3 days	14.0 days	6.0 days	2.1 ng/mL (≈ 6.3 nM)						
Cc1ccc(S(=O)(=O)NN=C2CCC3(CC2)OOC2(O3)C3CC4CC(C3)CC2C4)cc1 (stereo not shown) [OZ39]	1.4 ng/mL (≈ 3.14 nM)	61%	99.3%		6.3 days	7.7 days		1.8 ng/mL (≈ 4.03 nM)						
Fc1ccc(NC2CCC3(CC2)OOC2(O3)C3CC4CC(C3)CC2C4)cc1 (stereo not shown) [OZ201]	2.0 ng/mL (≈ 5.36 nM)	100/100/100%	100/100/100%	100/100/100%	13 days	25 days	10.3 days	3.1 ng/mL (≈ 8.3 nM)						
O=C(NC[C@H]1CC[C@]2(CC1)OOC1(O2)C2CC3CC(C2)CC1C3)c1cc[n+]([O-])cc1 (stereo partly shown) [OZ264]	1.2 ng/mL (≈ 2.9 nM)	99.61%	99.97%	99.92%	11.0 days	13.7 days	10.3 days	1.5 ng/mL (≈ 3.62 nM)						
c1cnn(C[C@H]2CC[C@]3(CC2)OOC2(O3)C3CC4CC(C3)CC2C4)c1 (stereo partly shown) [OZ211]	1.0 ng/mL (≈ 2.9 nM)	82%	99.90%	78%	8.0 days	8.7 days	7.3 days	1.2 ng/mL (≈ 3.48 nM)						
O=S(=O)(C[C@H]1CC[C@]2(CC1)OOC1(O2)C2CC3CC(C2)CC1C3)c1ccccc1 (stereo partly shown) [OZ210]	1.4 ng/mL (≈ 3.34 nM)	99.23%	99.94%	77%	9.3 days	10.3 days	8.0 days	1.6 ng/mL (≈ 3.82 nM)						
FC1CCCCC12OOC1(CCCCC1)O2 (stereo not shown) [OZ06]	18 ng/mL (≈ 78.2 nM)				1.0/NA/1.0^1 days	1.0/NA/1.0^1 days		22 ng/mL (≈ 95.5 nM)						
CCOC(=O)c1ccc(C2(c3ccc(C(=O)OCC)cc3)OOC3(O2)C2CC4CC(C2)CC3C4)cc1 (stereo not shown) [OZ125]	68 ng/mL (≈ 138 nM)	8%	0%	0%	5.3 days	6.0 days	5.7 days	> 100 ng/mL						
COC(=O)C1(c2ccccc2)CCC2(CC1)OOC1(O2)C2CC3CC(C2)CC1C3 (stereo not shown) [OZ98]	2.3 ng/mL (≈ 5.77 nM)	72%	77%	11%	6.3 days	7.3 days	5.3 days	0.9 ng/mL (≈ 2.26 nM)						
CCOC(=O)CCC1CCCCC12OOC1(CCCCC1)O2 (stereo not shown) [OZ07]	66 ng/mL (≈ 211 nM)	0/NA/0^1%	0/NA/0^1%		6.0 days	5.7 days		49 ng/mL (≈ 157 nM)						
CC(C)(CO)NC(=O)[C@H]1CC[C@]2(CC1)OOC1(O2)C2CC3CC(C2)CC1C3 (stereo partly shown) [OZ129]	10/>10 ng/ml	0%	0%	4%	5.3 days	5.7 days	5.7 days	10/>10 ng/ml						
O=C(O)CCC(=O)N[C@H]1CC[C@]2(CC1)OOC1(O2)C2CC3CC(C2)CC1C3 (stereo partly shown) [OZ196]	>10/>10 ng/ml	10%	17%	0%	6.0 days	5.7 days	5.3 days	>10/>10 ng/ml						
CCOC(=O)C1(C(=O)OCC)COC2(CCC3(CC2)OOC2(O3)C3CC4CC(C3)CC2C4)OC1 (stereo not shown) [OZ120]	1.2 ng/mL (≈ 2.5 nM)	33%	96%	8%	6.0 days	8.0 days	5.7 days	0.59 ng/mL (≈ 1.23 nM)						
OC1CCC2(CC1)OOC1(O2)C2CC3CC(C2)CC1C3 (stereo not shown) [OZ32]		79%	91%	93%	6.7 days	8.7 days	7.0 days		0.25 ng/mL (≈ 0.892 nM)	0.51 ng/mL (≈ 1.82 nM)				
CCOC(=O)CCC[C@H]1CC[C@]2(CC1)OOC1(O2)C2CC3CC(C2)CC1C3 (stereo partly shown) [OZ260]	5.6 ng/mL (≈ 14.8 nM)	72%	81%	51%	6.7 days	7.7 days	7.0 days	4.3 ng/mL (≈ 11.4 nM)						
NC(=O)CCNC[C@H]1CC[C@]2(CC1)OO[C@]1(O2)C2CC3CC(C2)CC1C3 [OZ319]	0.41 ng/mL (≈ 1.12 nM)							0.91 ng/mL (≈ 2.5 nM)			99.14%	99.92%	10.8 days	10.6 days
O=S(=O)(C[C@H]1CC[C@]2(CC1)OO[C@]1(O2)C2CC3CC(C2)CC1C3)c1ncccn1 [OZ299]	6.8 ng/mL (≈ 16.2 nM)							6.3 ng/mL (≈ 15 nM)			0%	36%		6.6 days
OCCC1CCC2(CC1)OOC1(O2)C2CC3CC(C2)CC1C3 (stereo not shown) [OZ89]		94%	99.8%	89%	7.3 days	8.7 days	6.7 days		0.3 ng/mL (≈ 0.973 nM)	0.75 ng/mL (≈ 2.43 nM)				
COC(=O)c1cn(C[C@H]2CC[C@]3(CC2)OOC2(O3)C3CC4CC(C3)CC2C4)cn1 (stereo partly shown) [OZ224]	2.0 ng/mL (≈ 4.97 nM)	0%	20%	5%	6.0 days	5.7 days	5.7 days	3.0 ng/mL (≈ 7.45 nM)						
c1ccc(C2(c3ccccc3)CCC3(CC2)OOC2(O3)C3CC4CC(C3)CC2C4)cc1 (stereo not shown) [OZ34]	42 ng/mL (≈ 101 nM)	0/NA/0%	0/NA/0%		5.3 days	5.7 days		60 ng/mL (≈ 144 nM)						
